Results published in ChEMBL document CHEMBL1201862, “PubChem BioAssay data set” (2004).
Active and inactive are the calls of the source.

Columns and labels:
Bcl-2-related protein A1 = target: T1, Bcl-2-related protein A1 (Mus musculus, UniProt Q07440); assay type: functional;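 also: confirmatory dose–response counterscreen on Bfl-1, used to check hits from a UBC13 polyubiquitin inhibitor campaign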
T1 sequence (Q07440 whole entry): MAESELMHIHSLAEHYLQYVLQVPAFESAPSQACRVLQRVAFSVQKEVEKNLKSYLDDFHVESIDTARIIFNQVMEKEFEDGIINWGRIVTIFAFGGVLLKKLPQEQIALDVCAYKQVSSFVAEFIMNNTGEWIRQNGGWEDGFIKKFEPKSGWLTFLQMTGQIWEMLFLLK

[1] = target: T2, Ubiquitin-conjugating enzyme E2 N (Homo sapiens, UniProt P61088); assay type: functional
T2 sequence (P61088 whole entry): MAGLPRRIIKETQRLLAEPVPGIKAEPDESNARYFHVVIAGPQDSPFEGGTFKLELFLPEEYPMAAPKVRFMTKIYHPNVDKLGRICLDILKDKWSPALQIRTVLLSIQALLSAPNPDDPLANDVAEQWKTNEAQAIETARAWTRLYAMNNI

[2] = target: T2, Ubiquitin-conjugating enzyme E2 N; assay type: functional; remark: listed apart in the source
[3] = target: Voltage-dependent T-type calcium channel subunit alpha-1H (Homo sapiens, UniProt O95180); assay type: functional;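 also: channel activity triggered by adding a high calcium stimulation buffer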
[4] = luciferase reporter signal suppression in cells – H4 neuroglioma cells, luminescence, dose response (AID 1990); assay type: functional, cell-based
[5] = alpha-synuclein stem-loop luciferase translation blockers – H4 neuroglioma cells, luminescence, confirmation (AID 1988); assay type: functional, cell-based
[6] = luciferase reporter signal reduction – luminescence, H4-C neuroglioblastoma cells, dose response (AID 2458); assay type: functional, cell-based;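 also: H4 neuroglioblastoma cells stably carrying a luciferase reporter gene fusion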
[7] = alpha-synuclein stem-loop translation blockers – luminescence, H4 neuroglioblastoma cells, dose confirmation, confirmation (AID 2454); assay type: functional, cell-based;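 also: H4 neuroglioblastoma cells carrying an alpha-synuclein 5'UTR luciferase reporter; potency for inhibition of the luciferase signal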
[8] = Luminescence Cell-Based Dose Response HTS to Identify Inhibitors of 5'UTR Stem-Loop Driven Prion Protein mRNA Translation in H4 Neuroglioblastoma Cells. [Related pubchem assays: 1827 (Project Summary), 1813 (Primary HTS)]; assay type: functional
cells [9] = assay type: functional, cell-based
[10] = THP-1 cell cytotoxicity, dose response, cytotoxicity control for non-replicating M. tuberculosis project (AID 489025); assay type: functional
[11] = Luminescence Cell-Based Dose Retest to Confirm Inhibitors of Cancer Stem Cells. [Related pubchem assays (depositor defined):AID2717, AID2721]; assay type: functional; details: Homo sapiens
[12] = Trypanosoma cruzi growth suppression in host cells – NIH3T3 host cells, beta-gal luminescence, confirmation (AID 2044); assay type: functional, cell-based;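 also: intracellular parasites grown in NIH/3T3 mouse fibroblasts as host cells; luminescent beta-galactosidase reporter signal from transgenic T. cruzi replicating inside host cells; inhibitors lower the luminescence signal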
[13] = viability of HCT116 lacking mutant beta-catenin – cell-based, human colon tumor, dose response (AID 1045); assay type: functional;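 also: HCT116 colon tumor cells with beta catenin knocked out; cells exposed to compound for 60 hours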
[14] = NIH3T3 cell viability loss – ATP luminescence, mouse fibroblasts, counter-screen, dose response (AID 2010); assay type: functional, cell-based;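 also: cells exposed to compound for about 90 hours before reading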
Melanocortin receptor 4 = Melanocortin receptor 4 (Homo sapiens, UniProt P32245); assay type: functional, cell-based;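 also: Cell-based assay with luminescence read-out, confirmatory dose-response testing for agonist activity of biased ligands at MC4R; human U2OS cells with tagged receptor and beta-arrestin; potency of agonists that increase receptor coupling to beta-arrestin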
cells [15] = assay type: functional
[16] = viability of PTEN-deleted HCT116 cells – cell-based, HCT116 PTEN knockout, dose response (AID 1047); assay type: functional;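 also: HCT116 colon tumor cells with PTEN knocked out; cells exposed to compound for 60 hours before readout; potency for loss of cell viability measured by luminescence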
[17] = target: T3, Polyadenylate-binding protein 1 (Homo sapiens, UniProt P11940); assay: MLLE domain peptide-binding blockers, IC50 – biochemical, fluorescence polarization, FITC-PAM2 peptide, dose response (AID 602259); assay type: functional; details: read-out: IC50_Mean
[18] = target: DNA dC->dU-editing enzyme APOBEC-3G (Homo sapiens, UniProt Q9HC16); assay: Dose Response confirmation of small molecule APOBEC3G DNA Deaminase Inhibitors via a fluorescence-based single-stranded DNA deaminase assay. [Related pubchem assays (depositor defined):AID493012, AID493028]; assay type: functional
[19] = target: T3, Polyadenylate-binding protein 1; assay: MLLE binding blockers, Cy5 peptide tracer – biochemical, fluorescence polarization, Cy5-PAM2 peptide, secondary, miRNA deadenylation inhibitor project, dose response (AID 602260); assay type: functional; details: read-out: IC50_Mean
[20] = target: Cyclin-dependent kinase 5/CDK5 activator 1 (Homo sapiens, UniProt Q00535); assay: blockade of human CDK5 activity – biochemical, cherry-picked samples, set 2, dose response (AID 504545)
Protein RecA = target: T4, Protein RecA (Mycobacterium tuberculosis, UniProt P9WHJ3); assay: Fluorescence Cell-Free Homogeneous Dose Retest to Identify Inhibitors of RecA-Intein Splicing Activity. [Related pubchem assays (depositor defined):AID2097, AID2223, AID489010, AID492950]; assay type: functional
T4 sequence (P9WHJ3 whole entry): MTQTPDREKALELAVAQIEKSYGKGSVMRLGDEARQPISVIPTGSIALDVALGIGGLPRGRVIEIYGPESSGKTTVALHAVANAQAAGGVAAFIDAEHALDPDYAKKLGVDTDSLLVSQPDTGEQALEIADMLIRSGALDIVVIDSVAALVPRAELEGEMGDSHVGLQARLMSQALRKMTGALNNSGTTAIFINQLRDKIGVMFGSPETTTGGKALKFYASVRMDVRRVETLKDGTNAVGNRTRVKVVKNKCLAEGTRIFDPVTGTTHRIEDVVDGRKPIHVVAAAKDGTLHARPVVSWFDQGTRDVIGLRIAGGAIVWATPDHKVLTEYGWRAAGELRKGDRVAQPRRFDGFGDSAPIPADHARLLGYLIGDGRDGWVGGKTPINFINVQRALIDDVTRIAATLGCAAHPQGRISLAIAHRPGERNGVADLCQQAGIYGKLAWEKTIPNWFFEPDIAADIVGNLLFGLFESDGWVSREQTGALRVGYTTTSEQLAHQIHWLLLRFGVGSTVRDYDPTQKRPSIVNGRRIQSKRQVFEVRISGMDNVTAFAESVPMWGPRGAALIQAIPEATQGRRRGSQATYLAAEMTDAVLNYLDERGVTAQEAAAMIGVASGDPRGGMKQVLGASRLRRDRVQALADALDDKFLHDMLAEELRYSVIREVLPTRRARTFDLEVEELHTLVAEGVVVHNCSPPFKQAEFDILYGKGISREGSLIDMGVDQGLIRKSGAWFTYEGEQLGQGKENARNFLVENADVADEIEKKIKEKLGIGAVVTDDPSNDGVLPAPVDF

[21] = A Cell Based Secondary Assay To Explore Cytotoxicity of Compounds that Sensitize Mycobacterium Tuberculosis to Beta-Lactam Antibiotics.; assay type: functional

T3 sequence (P11940 whole entry, the tested form may be a part): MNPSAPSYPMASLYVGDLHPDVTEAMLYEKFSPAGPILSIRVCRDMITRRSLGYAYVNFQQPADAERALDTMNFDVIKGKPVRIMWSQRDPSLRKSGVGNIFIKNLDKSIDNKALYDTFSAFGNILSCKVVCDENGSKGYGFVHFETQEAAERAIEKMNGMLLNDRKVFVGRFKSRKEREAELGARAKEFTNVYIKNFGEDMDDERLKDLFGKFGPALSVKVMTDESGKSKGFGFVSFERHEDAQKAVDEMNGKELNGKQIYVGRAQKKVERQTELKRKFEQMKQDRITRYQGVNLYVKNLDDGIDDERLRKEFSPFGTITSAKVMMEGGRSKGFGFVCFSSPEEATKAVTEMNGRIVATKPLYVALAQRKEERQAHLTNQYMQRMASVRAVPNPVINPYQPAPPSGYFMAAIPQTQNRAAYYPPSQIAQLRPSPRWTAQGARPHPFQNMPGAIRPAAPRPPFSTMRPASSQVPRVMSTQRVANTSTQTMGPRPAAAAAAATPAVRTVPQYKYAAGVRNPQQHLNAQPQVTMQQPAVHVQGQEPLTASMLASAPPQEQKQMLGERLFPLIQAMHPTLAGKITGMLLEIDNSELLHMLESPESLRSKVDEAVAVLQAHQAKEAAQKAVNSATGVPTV
Sequence of Voltage-dependent T-type calcium channel subunit alpha-1H (O95180 whole entry): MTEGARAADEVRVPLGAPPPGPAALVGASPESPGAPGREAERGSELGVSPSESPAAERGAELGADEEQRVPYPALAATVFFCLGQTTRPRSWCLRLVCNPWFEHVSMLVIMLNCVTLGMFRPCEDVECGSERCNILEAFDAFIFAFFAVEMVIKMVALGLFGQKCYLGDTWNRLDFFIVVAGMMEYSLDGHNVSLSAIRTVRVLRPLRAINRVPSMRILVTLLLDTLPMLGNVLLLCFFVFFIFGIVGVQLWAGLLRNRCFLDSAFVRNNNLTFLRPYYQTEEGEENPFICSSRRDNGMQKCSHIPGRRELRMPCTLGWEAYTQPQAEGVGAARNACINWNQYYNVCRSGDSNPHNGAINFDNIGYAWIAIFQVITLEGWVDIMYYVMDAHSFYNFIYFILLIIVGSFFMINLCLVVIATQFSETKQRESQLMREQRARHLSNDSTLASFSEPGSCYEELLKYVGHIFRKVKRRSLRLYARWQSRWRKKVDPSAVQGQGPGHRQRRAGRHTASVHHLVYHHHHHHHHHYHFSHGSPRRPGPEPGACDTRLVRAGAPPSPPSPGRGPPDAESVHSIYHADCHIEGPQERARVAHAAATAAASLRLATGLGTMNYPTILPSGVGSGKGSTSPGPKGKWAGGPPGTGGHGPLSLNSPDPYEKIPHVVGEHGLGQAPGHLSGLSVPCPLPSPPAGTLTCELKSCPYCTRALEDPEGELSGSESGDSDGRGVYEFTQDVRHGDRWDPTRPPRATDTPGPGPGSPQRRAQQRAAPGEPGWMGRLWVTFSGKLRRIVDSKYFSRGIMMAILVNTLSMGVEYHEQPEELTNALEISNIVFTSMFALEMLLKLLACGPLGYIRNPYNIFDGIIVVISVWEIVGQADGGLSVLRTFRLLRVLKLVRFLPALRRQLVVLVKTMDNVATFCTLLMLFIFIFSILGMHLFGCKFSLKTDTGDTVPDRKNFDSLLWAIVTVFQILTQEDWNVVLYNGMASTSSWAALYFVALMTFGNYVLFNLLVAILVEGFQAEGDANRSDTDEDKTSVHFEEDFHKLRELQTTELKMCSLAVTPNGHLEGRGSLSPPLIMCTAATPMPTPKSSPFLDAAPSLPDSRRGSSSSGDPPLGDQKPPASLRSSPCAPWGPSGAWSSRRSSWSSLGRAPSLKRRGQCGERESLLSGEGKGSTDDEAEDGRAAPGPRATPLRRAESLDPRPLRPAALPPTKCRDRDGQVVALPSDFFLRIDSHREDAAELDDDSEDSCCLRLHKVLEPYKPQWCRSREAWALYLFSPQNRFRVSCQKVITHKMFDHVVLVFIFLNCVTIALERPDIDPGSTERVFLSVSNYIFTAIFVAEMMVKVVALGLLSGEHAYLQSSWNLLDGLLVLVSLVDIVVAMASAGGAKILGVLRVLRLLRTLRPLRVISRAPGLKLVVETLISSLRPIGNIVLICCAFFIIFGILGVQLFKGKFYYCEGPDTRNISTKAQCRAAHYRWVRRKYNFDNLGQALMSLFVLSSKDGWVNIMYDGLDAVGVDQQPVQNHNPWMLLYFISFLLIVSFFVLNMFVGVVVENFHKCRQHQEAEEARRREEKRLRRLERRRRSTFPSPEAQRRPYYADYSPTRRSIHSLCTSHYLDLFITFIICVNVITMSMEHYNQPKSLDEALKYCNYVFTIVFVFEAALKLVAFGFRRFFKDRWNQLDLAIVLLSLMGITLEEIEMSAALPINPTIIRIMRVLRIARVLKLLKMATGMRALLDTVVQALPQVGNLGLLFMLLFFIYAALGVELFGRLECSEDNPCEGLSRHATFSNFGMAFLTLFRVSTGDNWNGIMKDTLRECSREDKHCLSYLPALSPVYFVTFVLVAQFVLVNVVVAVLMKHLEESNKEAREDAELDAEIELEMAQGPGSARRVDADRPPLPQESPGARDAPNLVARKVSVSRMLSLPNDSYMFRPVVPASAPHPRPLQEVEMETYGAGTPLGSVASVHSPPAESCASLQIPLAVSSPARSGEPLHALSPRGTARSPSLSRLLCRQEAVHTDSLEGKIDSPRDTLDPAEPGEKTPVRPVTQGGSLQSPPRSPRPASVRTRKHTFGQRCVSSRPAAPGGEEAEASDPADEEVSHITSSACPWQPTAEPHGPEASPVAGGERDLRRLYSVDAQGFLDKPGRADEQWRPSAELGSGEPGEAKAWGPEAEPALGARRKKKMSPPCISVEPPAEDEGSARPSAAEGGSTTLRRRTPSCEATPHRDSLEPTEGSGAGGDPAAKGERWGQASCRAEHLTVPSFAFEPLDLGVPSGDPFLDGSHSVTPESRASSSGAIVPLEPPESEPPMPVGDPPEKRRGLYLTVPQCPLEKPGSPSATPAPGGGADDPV
Sequence of Cyclin-dependent kinase 5/CDK5 activator 1 (Q00535 whole entry): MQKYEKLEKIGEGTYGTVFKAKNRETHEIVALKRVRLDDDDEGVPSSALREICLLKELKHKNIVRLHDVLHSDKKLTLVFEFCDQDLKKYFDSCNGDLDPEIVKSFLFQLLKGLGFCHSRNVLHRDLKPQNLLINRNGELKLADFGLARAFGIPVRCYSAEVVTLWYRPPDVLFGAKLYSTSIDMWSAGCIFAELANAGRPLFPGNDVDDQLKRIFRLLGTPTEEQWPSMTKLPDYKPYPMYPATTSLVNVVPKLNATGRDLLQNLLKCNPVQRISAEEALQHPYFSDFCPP
Sequence of Cyclin-dependent kinase 5/CDK5 activator 1 (Q15078 whole entry, further chain): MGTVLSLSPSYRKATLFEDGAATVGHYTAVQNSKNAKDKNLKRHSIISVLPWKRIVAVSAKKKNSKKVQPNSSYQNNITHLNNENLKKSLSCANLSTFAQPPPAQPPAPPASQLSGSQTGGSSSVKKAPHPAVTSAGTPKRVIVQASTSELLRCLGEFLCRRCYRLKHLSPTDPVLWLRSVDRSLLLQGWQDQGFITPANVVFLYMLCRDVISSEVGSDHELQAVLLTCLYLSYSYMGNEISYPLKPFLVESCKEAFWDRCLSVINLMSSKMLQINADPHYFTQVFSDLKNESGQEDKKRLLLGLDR
Sequence of DNA dC->dU-editing enzyme APOBEC-3G (Q9HC16 whole entry): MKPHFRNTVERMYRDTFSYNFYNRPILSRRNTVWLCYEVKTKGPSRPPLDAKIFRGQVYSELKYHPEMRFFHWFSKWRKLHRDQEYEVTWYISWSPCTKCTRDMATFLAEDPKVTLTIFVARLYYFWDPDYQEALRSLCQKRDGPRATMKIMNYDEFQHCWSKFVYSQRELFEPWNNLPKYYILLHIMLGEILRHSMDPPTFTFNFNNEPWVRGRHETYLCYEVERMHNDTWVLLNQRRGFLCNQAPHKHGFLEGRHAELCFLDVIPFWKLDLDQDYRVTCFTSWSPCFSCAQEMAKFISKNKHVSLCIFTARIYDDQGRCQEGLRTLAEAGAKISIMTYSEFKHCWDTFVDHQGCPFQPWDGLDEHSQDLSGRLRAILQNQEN
Sequence of Melanocortin receptor 4 (P32245 whole entry): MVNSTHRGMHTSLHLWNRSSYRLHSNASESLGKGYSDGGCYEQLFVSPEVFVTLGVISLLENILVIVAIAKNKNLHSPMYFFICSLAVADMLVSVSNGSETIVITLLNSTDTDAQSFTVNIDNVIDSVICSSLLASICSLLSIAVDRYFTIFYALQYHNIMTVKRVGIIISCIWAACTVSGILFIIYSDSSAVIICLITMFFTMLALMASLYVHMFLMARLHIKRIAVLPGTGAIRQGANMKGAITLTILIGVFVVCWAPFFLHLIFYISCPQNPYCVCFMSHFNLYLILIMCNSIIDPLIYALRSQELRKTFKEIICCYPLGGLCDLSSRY

For `NNC(=O)c1ccc(CN2C(=O)c3cccc4cccc2c34)cc1`, the IC50 (Bcl-2-related protein A1) was > 20 µM (inactive), the IC50 [1] was 8.94 µM (active) and the IC50 [2] was 3.55 µM (active).
For `CCCC(=O)N1CCN(c2ccc([N+](=O)[O-])c(NC(C)c3ccccc3)c2)CC1` (stereo not drawn), the EC50 [3] was 5.51 µM (active).
For `C/C=C(\C)C(=O)OC1C(C)=C2C(C1OC(=O)CCCCC)C(C)(OC(C)=O)CC(OC(=O)CCC)C1(O)C2OC(=O)C1(C)O` (stereo not drawn), the EC50 [4] was < 0.1 µM (active), the EC50 [5] was < 0.1 µM (active) and the EC50 [6] was 0.051 µM (active). For the same compound, the EC50 [7] was 0.047 µM (active), the EC50 [8] was < 0.1 µM (active) and the EC50 (cells [9]) was 0.228 µM (active).
With `COc1ccc(OC)c(CCNC(=O)CS(=O)(=O)Cc2nc(-c3ccc(C)cc3)oc2C)c1` the EC50 [3] was 3.8 µM (active).
For `OC(CNCCc1ccc(C(F)(F)F)cc1)COc1cccc2ccccc12` (stereo not drawn), the CC50 [10] was 21.5 µM (active), the AC50 [11] was 3.47 µM (active) and the EC50 [12] was 0.631 µM (active). The EC50 [13] was 10.7 µM (active), the EC50 [14] was > 60 µM (inconclusive) and the EC50 (Melanocortin receptor 4) was > 89.2 µM (inactive). For the same compound, the IC50 (cells [15]) was 21.7 µM (active) and the EC50 [16] was 12.7 µM (active).
With `CCCOC(=O)c1c(NC(=O)C2CCCO2)sc(C(=O)OC)c1C` (stereo not drawn) the IC50 [17] was > 66 µM (inactive), the EC50 [13] was 28.2 µM (active) and the IC50 [18] was 69.5 µM (active). The EC50 [16] was 28.7 µM (active) and the IC50 [19] was > 66 µM (inactive).
In the case of `Cc1n[nH]c(O)c1C(c1ccccc1[N+](=O)[O-])C(C#N)C#N` (stereo not drawn), the AC50 [20] is reported as 61.1 µM (active) and the EC50 (Protein RecA) is reported as 3.93 µM (active).
In the case of `CC(C)(C)Nc1nc(Nc2ccc([N+](=O)[O-])cc2)nc(NC(C)(C)C)n1`, the EC50 [4] is reported as > 120 µM (not active), the EC50 [5] is reported as > 120 µM (not active) and the EC50 [8] is reported as > 120 µM (not active). The CC50 [21] was > 40 µM (active).
For `COc1ccc(/C=N/NC(=O)Cc2csc(Nc3cccc(C(F)(F)F)c3)n2)c(OC)c1`, the IC50 (Bcl-2-related protein A1) was > 20 µM (inactive), the IC50 [1] was 14 µM (active) and the IC50 [2] was 10.1 µM (active).
